The record followed here is patent US7868135B2, “Compositions of lipopeptide antibiotic derivatives and methods of use thereof” (priority 2003, dated 2011).

Starred links: 1 amine or outer side, 2 acyl side, 3 side chain; linkers in the order of their positions; H or OH if unused. Positions of bridges follow the written chain, without caps; N, C: chain ends. Non-standard residues stand in square brackets, D forms with d. Residues, ends and D or L forms follow the SMILES beside them. ξ: configuration not given here. *: point of attachment. X28 = CCCCCCCC(=O)Nc1cc(NC(=O)CCCCCCC)cc(C(=O)*)c1; ξAbu(βξ-NH2) = CC(N[*:3])C(N[*:1])C(=O)[*:2]; Phac(3-amino) = O=C(Cc1cccc(N[*:1])c1)[*:2]; X26 = COC(=O)CC(=O)NC(C)C(N[*:1])C(=O)[*:2]; Pentadecanoyl = CCCCCCCCCCCCCCC(=O)*; Bta = N[C@@H](Cc1csc2ccccc12)C(=O)O; ξAsp(βξ-Me) = CC(C(=O)O)C(N)C(=O)O; ξAbu(3ξ-NH2) = CC(N)C(N)C(=O)O; Decanoyl = CCCCCCCCCC(=O)*; Octanoyl = CCCCCCCC(=O)*; Pip = O=C(O)[CH]1CCCCN1; ξD = NC(CC(=O)O)C(=O)O; ξPip = O=C(O)C1CCCCN1; ξV = CC(C)C(N)C(=O)O; ξP = O=C(O)C1CCCN1

This test has as its system Staphylococcus aureus (MSSA). Particulars: 24 h. The essentials: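 Broth microdilution MIC per NCCLS M7-A6 with doubling serial dilutions, in cation-adjusted Mueller-Hinton broth supplemented with 0.625 mM calcium.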
`CCCCCCCCCCCCCCC(=O)NC(C)C1NC(=O)CNC(=O)C(CC(=O)O)NC(=O)CNC(=O)C(CC(=O)O)NC(=O)C(C(C)C(=O)O)NC(=O)C2CCCCN2C(=O)C(NC(=O)C(CC(=O)O)NC(=O)CNC(=O)[C@@H](N)CCCCN)C(C)NC(=O)C2CCCN2C(=O)C(C(C)C)NC1=O` (stereo partly drawn) [Compound 331, Lys-Gly-Amphomycin-9-C15] (H-KG[ξD][ξAbu(βξ-NH2)][ξPip][ξAsp(βξ-Me)][ξD]G[ξD]G[ξAbu(βξ-NH2)](Pentadecanoyl)[ξV][ξP]; lactam 4-C): the MIC was greater than 64 µg/mL.
With `CCCCCCCCCCCCCCNC(=O)NC(CC(=O)O)C(=O)NC1C(=O)N2CCCCC2C(=O)NC(C(C)C(=O)O)C(=O)NC(CC(=O)O)C(=O)NCC(=O)NC(CC(=O)O)C(=O)NCC(=O)NC(C(C)NC(=O)CN)C(=O)NC(C(C)C)C(=O)N2CCCC2C(=O)NC1C` (centres unmarked) [Compound 279, CH3—(CH2)13—NH—C(═O)-Amphomycin-9-Gly], the MIC was found to be 0.5 µg/mL.
As for `CCCCCCCC(=O)Nc1cc(NC(=O)CCCCCCC)cc(C(=O)NC(CC(=O)O)C(=O)NC2C(=O)N3CCCCC3C(=O)NC(C(C)C(=O)O)C(=O)NC(CC(=O)O)C(=O)NCC(=O)NC(CC(=O)O)C(=O)NCC(=O)NC(C(C)N)C(=O)NC(C(C)C)C(=O)N3CCCC3C(=O)NC2C)c1` (stereo not drawn) [Compound 305, N,N′-di-C8-(M,M-Diaminobenzoyl)-Amphomycin] (X28-D[ξAbu(βξ-NH2)][Pip][ξAsp(βξ-Me)]DGDG[ξAbu(3ξ-NH2)]VP; lactam 2-C; configuration not given here), the figure is 1 µg/mL; as for `CCCCCCCCCCCCC(=O)NC(CC(=O)O)C(=O)NC1C(=O)N2CCCCC2C(=O)NC(C(C)C(=O)O)C(=O)NC(CC(=O)O)C(=O)NCC(=O)NC(CC(=O)O)C(=O)NCC(=O)NC(C(C)N)C(=O)NC(C(C)C)C(=O)N2CCCC2C(=O)NC1C` (centres unmarked) [Compound 9, C13-Amphomycin], 0.5 to 1 µg/mL; as for `CCCCCCCCCCCCCCC(=O)NC(CC(=O)O)C(=O)NC1C(=O)N2CCCCC2C(=O)NC(C(C)C(=O)O)C(=O)NC(CC(=O)O)C(=O)NCC(=O)NC(CC(=O)O)C(=O)NCC(=O)NC(C(C)NC(=O)CC(=O)OC)C(=O)NC(C(C)C)C(=O)N2CCCC2C(=O)NC1C` (stereo not drawn) [Compound 231] (Pentadecanoyl-D[ξAbu(βξ-NH2)][Pip][ξAsp(βξ-Me)]DGDG[X26]VP; lactam 2-C; configuration not given here), 8 µg/mL.
As for `CCCCCCCCCC(=O)N[C@@H](Cc1csc2ccccc12)C(=O)NC(CC(=O)O)C(=O)NC1C(=O)N2CCCCC2C(=O)NC(C(C)C(=O)O)C(=O)NC(CC(=O)O)C(=O)NCC(=O)NC(CC(=O)O)C(=O)NCC(=O)NC(C(C)N)C(=O)NC(C(C)C)C(=O)N2CCCC2C(=O)NC1C` (stereo partly drawn) [Compound 118, C10-(L-BBTA)-Amphomycin] (Decanoyl-[Bta][ξD][ξAbu(βξ-NH2)][ξPip][ξAsp(βξ-Me)][ξD]G[ξD]G[ξAbu(3ξ-NH2)][ξV][ξP]; lactam 3-C), the MIC was 2 µg/mL.
As for `CCCCCCCC(=O)Nc1cccc(CC(=O)NC(CC(=O)O)C(=O)NC2C(=O)N3CCCCC3C(=O)NC(C(C)C(=O)O)C(=O)NC(CC(=O)O)C(=O)NCC(=O)NC(CC(=O)O)C(=O)NCC(=O)NC(C(C)N)C(=O)NC(C(C)C)C(=O)N3CCCC3C(=O)NC2C)c1` (stereo not drawn) [Compound 361, C8-(M-Apa)-Amphomycin] (Octanoyl-[Phac(3-amino)]D[ξAbu(βξ-NH2)][Pip][ξAsp(βξ-Me)]DGDG[ξAbu(3ξ-NH2)]VP; lactam 3-C; configuration not given here), the figure is greater than 64 µg/mL; as for `CCCCCCCCCCCCCCC(=O)NC(CC(=O)O)C(=O)NC1C(=O)N2CCCCC2C(=O)NC(C(C)C(=O)O)C(=O)NC(CC(=O)O)C(=O)NCC(=O)NC(CC(=O)O)C(=O)NCC(=O)NC(C(C)NC(=O)[C@H](N)Cc2c[nH]c3ccccc23)C(=O)NC(C(C)C)C(=O)N2CCCC2C(=O)NC1C` (stereo partly drawn) [Compound 264, C15-Amphomycin-(D-Trp)], 8 µg/mL.

By MIC is commonly meant the lowest concentration found to suppress growth.
